In brackets after ≈: the same amount, converted by molar mass.
Tests used:
[1] = system: IAV; assay: Western blot analysis of IAV HA protein level after time-of-drug-addition treatment; assay type: cell-based, influenza A virus (PR8-GFP)
[2] = system: IAV; assay: Time-of-drug-addition assay, viral RNA transcript levels via qRT-PCR; assay type: cell-based, influenza A virus (PR8-GFP)
[3] = system: MDCK cells; assay: Cytotoxicity / MTT assay; assay type: cell-based, canine; details: 48 h, up to a concentration of 10 µg/mL
Procedure: To clarify whether the inhibitory activities of ethyl pheophorbides a and b are mediated through cytotoxicity, MDCK cells were treated with different concentrations of each compound and cell viability was determined after 48 h via the MTT assay (Figure S7).
After a 4 h period, tetrazolium crystals were dissolved with DMSO and absorbance was measured at 560 nm.

[4] = system: IBV; assay: Plaque reduction assay, IBV; details: Influenza B virus, MDCK, read-out: 50% inhibitory concentration (IC50) for IBV, virus pre-treated 1 h at room temperature, MDCK cells, MOI 0.001, plaque assay 48 h after infection
[5] = system: adenovirus; assay: Adenovirus plaque assay; details: virus pre-treated 1 h at room temperature, 293A cells
[6] = molecular target: HA2 (Influenza A virus, UniProt P03452); assay: Hemolysis inhibition assay with chicken red blood cells; details: IAV treated with 1 µg/mL, cRBC 2%, pH 5.2
Chain of HA2 (P03452 344-565 limits assumed): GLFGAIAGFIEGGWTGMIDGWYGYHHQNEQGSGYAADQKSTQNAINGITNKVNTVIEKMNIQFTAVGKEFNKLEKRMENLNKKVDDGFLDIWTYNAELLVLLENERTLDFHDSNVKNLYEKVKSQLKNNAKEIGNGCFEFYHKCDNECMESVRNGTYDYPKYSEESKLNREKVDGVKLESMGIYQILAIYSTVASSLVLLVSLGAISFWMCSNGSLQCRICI
Chain of HA2 (P03452 18-343 partner limits assumed): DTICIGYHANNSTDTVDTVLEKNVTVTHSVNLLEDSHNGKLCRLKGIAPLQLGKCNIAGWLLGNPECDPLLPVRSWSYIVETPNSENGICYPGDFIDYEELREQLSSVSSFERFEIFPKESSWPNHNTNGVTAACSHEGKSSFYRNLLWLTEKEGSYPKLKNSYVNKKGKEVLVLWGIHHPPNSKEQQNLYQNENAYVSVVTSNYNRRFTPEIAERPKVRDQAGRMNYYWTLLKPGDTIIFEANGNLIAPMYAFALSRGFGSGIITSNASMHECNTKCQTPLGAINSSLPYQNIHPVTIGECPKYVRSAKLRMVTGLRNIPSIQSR

[7] = molecular target: HA1 (Influenza A virus, UniProt P03452); assay: Hemagglutination inhibition assay with chicken red blood cells; details: IAV treated with 1 µg/mL, cRBC 0.5%
Chain of HA1 (P03452 18-343 limits assumed): as the sequence (P03452 18-343 partner limits assumed) above
Chain of HA1 (P03452 344-565 partner limits assumed): as the sequence (P03452 344-565 limits assumed) above

[8] = molecular target: IAV NA (Influenza A virus, UniProt P03468); assay type: biochemical
Chain of IAV NA (P03468 whole entry, looked up): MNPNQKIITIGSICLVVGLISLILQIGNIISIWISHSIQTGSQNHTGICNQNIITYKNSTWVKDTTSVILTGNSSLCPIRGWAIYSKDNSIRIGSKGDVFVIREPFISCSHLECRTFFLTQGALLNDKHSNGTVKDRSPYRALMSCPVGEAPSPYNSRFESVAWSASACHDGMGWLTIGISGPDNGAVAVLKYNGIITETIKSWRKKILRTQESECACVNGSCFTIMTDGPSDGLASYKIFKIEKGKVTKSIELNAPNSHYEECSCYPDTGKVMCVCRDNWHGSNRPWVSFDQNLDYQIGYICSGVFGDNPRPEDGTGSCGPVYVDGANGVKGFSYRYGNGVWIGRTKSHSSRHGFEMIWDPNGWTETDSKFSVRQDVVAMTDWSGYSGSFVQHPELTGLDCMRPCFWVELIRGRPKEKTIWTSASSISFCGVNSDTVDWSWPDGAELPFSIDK

[9] = system: IAV; assay: Plaque reduction assay, IAV; assay type: cell-based, influenza A virus (PR8-GFP); details: Influenza A virus, MDCK, virus pre-treated 1 h at room temperature, MDCK cells, MOI 0.01, plaque assay 48 h after infection; read-out: 50% inhibitory concentration (IC50) for IAV
Procedure: All experiments were performed in triplicate.

SMILES | IAV HA protein level ([1]; treatment during adsorption, 1 mM, western blot) | IAV replication (viral RNA transcript level) ([2]; treatment during virus adsorption to host cells, 1 mM) | expression of IAV HA protein [1] | cell viability (MTT) [3] | IC50 [4] [µg/mL] | effect against non-enveloped adenovirus [5] | hemolysis inhibition (HA2 function) [6] | hemagglutination inhibition (HA1 function) [7] | effect on IAV NA activity [8] | IAV transcript levels [2] | IC50 [9] [µg/mL]
NC12CC3CC(CC(C3)C1)C2 [Amantadine, reference compound] | marked downregulation | marked decrease |  |  |  |  |  |  |  |  | 
C=CC1=C(C)c2cc3[nH]c(c4c5nc(cc6[nH]c(cc1n2)c(C)c6CC)C(C)=C5C(=O)C4C(=O)OC)C(CCC(=O)OCC)C3C (centres unmarked) [ethyl pheophorbide a] |  |  | significantly suppressed | no adverse effects on cell viability | 1.62 ± 0.86 (≈ 2.61 µM) | no effect | no effect | no effect | no effects | significantly reduced | 0.086 ± 0.072 (≈ 0.139 µM)
C=CC1=C(C)c2cc3[nH]c(c4c5nc(cc6[nH]c(cc1n2)c(C=O)c6CC)C(C)=C5C(=O)C4C(=O)OCC)C(CCC(=O)O)C3C (centres unmarked) [ethyl pheophorbide b] |  |  | significantly suppressed | no adverse effects on cell viability | 3.17 ± 0.94 (≈ 5.11 µM) | no effect | no effect | no effect | no effects | significantly reduced | 0.094 ± 0.058 (≈ 0.151 µM)

Source: PMC9822050, “Antiviral Activities of Ethyl Pheophorbides a and b Isolated from Aster pseudoglehnii against Influenza Viruses” (Molecules, 2022)
